pKd: −log10 of the molar value.
What was measured:
[1] = biological target: B-Raf (Homo sapiens (Human), UniProt P15056); test: KINOMEscan binding of B-Raf to standard ligand
Excerpt: (§1) These assays may be conducted by DiscoverX (formerly Ambit; San Diego, Calif.).

[2] = biological target: Lck (Homo sapiens (Human), UniProt P06239); test: KINOMEscan dissociation constant, Lck; type: binding
Excerpt: as §1

[3] = tested on: Jurkat cells; test: Cell cytotoxicity assay (assay r); type: cell-based, human
Description: 1×10^5 Jurkat cells (immortalised human T lymphocytes) are added to the appropriate number of wells of a 96 well plate in 100 μL of media (RPMI supplemented with 10% foetal bovine serum). 1 μL of DMSO control (final concentration 1.0% v/v) or test compound (final concentration 20, 5 or 1 μg/mL) is added to the wells and incubated at 37° C., 5% CO2. After 24 hours, the plate is centrifuged at 1200 rpm for 3 minutes and the supernatant discarded. Cells are then resuspended in 150 μL (final concentration 7.5 μg/mL) of propidium iodide (PI) in PBS and incubated at 37° C., 5% CO2 for 15 minutes. After 15 minutes, cells are analysed by flow cytometry (BD accuri) using the FL3 window. The % viability is calculated as the % of cells that are PI negative in the test wells normalised to the DMSO control.

B-Raf, sequence (P15056 whole entry): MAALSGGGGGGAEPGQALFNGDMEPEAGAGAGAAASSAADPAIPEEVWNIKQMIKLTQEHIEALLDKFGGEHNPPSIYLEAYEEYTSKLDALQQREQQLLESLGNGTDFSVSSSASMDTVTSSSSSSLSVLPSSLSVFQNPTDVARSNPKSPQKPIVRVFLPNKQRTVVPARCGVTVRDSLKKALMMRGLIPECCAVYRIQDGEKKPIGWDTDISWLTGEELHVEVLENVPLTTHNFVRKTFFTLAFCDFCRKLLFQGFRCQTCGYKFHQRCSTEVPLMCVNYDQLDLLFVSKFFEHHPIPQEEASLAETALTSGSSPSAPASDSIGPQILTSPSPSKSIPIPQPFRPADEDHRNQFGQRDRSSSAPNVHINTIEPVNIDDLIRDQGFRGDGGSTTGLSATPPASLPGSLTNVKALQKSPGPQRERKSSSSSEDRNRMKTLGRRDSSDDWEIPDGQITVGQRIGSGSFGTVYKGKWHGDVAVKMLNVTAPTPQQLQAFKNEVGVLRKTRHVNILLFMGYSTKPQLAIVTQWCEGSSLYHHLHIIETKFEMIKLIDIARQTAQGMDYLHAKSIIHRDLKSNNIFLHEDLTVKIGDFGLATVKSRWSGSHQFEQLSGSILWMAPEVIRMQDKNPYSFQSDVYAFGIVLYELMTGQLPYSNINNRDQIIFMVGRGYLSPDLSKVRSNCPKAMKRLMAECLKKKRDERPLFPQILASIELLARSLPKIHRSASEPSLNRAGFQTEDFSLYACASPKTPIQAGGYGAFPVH
Lck, sequence (P06239 whole entry): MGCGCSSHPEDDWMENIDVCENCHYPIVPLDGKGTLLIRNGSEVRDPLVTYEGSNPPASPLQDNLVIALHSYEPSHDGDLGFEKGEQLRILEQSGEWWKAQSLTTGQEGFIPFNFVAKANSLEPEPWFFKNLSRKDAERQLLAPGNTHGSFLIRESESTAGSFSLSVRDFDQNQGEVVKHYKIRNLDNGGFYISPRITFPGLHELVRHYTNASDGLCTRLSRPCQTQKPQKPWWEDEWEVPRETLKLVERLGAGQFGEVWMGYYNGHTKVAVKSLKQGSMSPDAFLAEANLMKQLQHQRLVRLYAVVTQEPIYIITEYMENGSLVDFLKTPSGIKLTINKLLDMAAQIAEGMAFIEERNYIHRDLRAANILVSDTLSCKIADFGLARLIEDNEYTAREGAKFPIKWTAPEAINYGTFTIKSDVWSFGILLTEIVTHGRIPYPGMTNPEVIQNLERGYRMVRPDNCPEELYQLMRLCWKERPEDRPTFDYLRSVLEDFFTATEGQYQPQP

Q: Which results are given for COc1cc(Nc2cc(Oc3ccc(NC(=O)Nc4cc(C(C)(C)C)cc(NS(C)(=O)=O)c4OC)c4ccccc34)ccn2)ccc1C(=O)O [Example 1, 4-((4-((4-(3-(5-(tert-Butyl)-2-methoxy-3-(methylsulfonamido)phenyl)ureido)naphthalen-1-yl)oxy)pyridin-2-yl)amino)-2-methoxybenzoic acid]?
A: effect on the binding of B-Raf to its standard ligand [1]: did not have any significant effect; pKd [2]: 8.38; % Viability at 1 μg/mL ([3]; 1 μg/mL, 24 hours): 94.6%; % Viability at 5 μg/mL ([3]; 5 μg/mL, 24 hours): 96.1%; % Viability at 20 μg/mL ([3]; 20 μg/mL, 24 hours): 95.8%; cytotoxicity compared with Reference Compound ([3]; assay (r)): substantially less cytotoxic than the Reference Compound

Source: patent publication US9499486B2, “Kinase inhibitor” (RESPIVERT LIMITED, priority 2014, dated 2016)
